{"source": "PubChem BioAssay AID1963849", "about": "(Molecular Pharmacology Branch, DTP, NCI, 2024);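 further: spheroids exposed to drugs for one week before measurement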;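 on viability, T/C: percent viability relative to DMSO vehicle control taken as 100%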", "tested_on": "299254-011-R-J1-PDC complex spheroid viability", "assay": "Anticancer human tumor 299254-011-R-J1-PDC patient-derived melanoma cell line growth inhibition [POLQ]", "details": "for IC50: curve of first compound; for viability, T/C: stronger effect = lower value", "summary_of_the_method": "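PDC + HUVEC + MSC complex spheroids; POLQ inhibitors ± partner drugs; top conc. at/near clinical Cmax, else 10 microM (SN-38 1 microM), half-log dilutions; 37 degrees C, 5% CO2.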", "data": [{"smiles": "CC1COCCN1c1cc(C2(S(C)(=N)=O)CC2)nc(-c2ccnc3[nH]ccc23)n1", "note": "(configuration not stated) + Cc1cccc(N(C)C(=O)C2C(O)CCN2c2nc(C)cc(C(F)(F)F)c2C#N)c1", "values": [{"measurement": "IC50", "setting": "second compound 0.0316 µM", "result": 6.32, "unit": "µM"}, {"measurement": "IC50", "setting": "second compound 0.1 µM", "result": 5.32, "unit": "µM"}, {"measurement": "IC50", "setting": "second compound 0.316 µM", "result": 7, "unit": "µM"}, {"measurement": "IC50", "setting": "second compound 1 µM", "result": 6.25, "unit": "µM"}, {"measurement": "IC50", "setting": "second compound 3.16 µM", "result": 4.22, "unit": "µM"}, {"measurement": "IC50", "setting": "second compound 10 µM", "result": 2.67, "unit": "µM"}, {"measurement": "viability, T/C", "setting": "second compound 0.0316 µM, first compound 0.0316 µM", "result": 105, "unit": "%"}, {"measurement": "viability, T/C", "setting": "second compound 0.0316 µM, first compound 0.1 µM", "result": 99, "unit": "%"}, {"measurement": "viability, T/C", "setting": "second compound 0.0316 µM, first compound 0.316 µM", "result": 87.2, "unit": "%"}, {"measurement": "viability, T/C", "setting": "second compound 0.0316 µM, first compound 1 µM", "result": 79.6, "unit": "%"}, {"measurement": "viability, T/C", "setting": "second compound 0.0316 µM, first compound 3.16 µM", "result": 66.4, "unit": "%"}, {"measurement": "viability, T/C", "setting": "second compound 0.0316 µM, first compound 10 µM", "result": 39.4, "unit": "%"}, {"measurement": "viability, T/C", "setting": "second compound 0.1 µM, first compound 0.0316 µM", "result": 108, "unit": "%"}, {"measurement": "viability, T/C", "setting": "second compound 0.1 µM, first compound 0.1 µM", "result": 103, "unit": "%"}, {"measurement": "viability, T/C", "setting": "second compound 0.1 µM, first compound 0.316 µM", "result": 91.1, "unit": "%"}, {"measurement": "viability, T/C", "setting": "second compound 0.1 µM, first compound 1 µM", "result": 80.1, "unit": "%"}, {"measurement": "viability, T/C", "setting": "second compound 0.1 µM, first compound 3.16 µM", "result": 61, "unit": "%"}, {"measurement": "viability, T/C", "setting": "second compound 0.1 µM, first compound 10 µM", "result": 36.7, "unit": "%"}, {"measurement": "viability, T/C", "setting": "second compound 0.316 µM, first compound 0.0316 µM", "result": 99.1, "unit": "%"}, {"measurement": "viability, T/C", "setting": "second compound 0.316 µM, first compound 0.1 µM", "result": 97.4, "unit": "%"}, {"measurement": "viability, T/C", "setting": "second compound 0.316 µM, first compound 0.316 µM", "result": 91.6, "unit": "%"}, {"measurement": "viability, T/C", "setting": "second compound 0.316 µM, first compound 1 µM", "result": 96.6, "unit": "%"}, {"measurement": "viability, T/C", "setting": "second compound 0.316 µM, first compound 3.16 µM", "result": 66, "unit": "%"}, {"measurement": "viability, T/C", "setting": "second compound 0.316 µM, first compound 10 µM", "result": 42.8, "unit": "%"}, {"measurement": "viability, T/C", "setting": "second compound 1 µM, first compound 0.0316 µM", "result": 93, "unit": "%"}, {"measurement": "viability, T/C", "setting": "second compound 1 µM, first compound 0.1 µM", "result": 92.5, "unit": "%"}, {"measurement": "viability, T/C", "setting": "second compound 1 µM, first compound 0.316 µM", "result": 104, "unit": "%"}, {"measurement": "viability, T/C", "setting": "second compound 1 µM, first compound 1 µM", "result": 94.3, "unit": "%"}, {"measurement": "viability, T/C", "setting": "second compound 1 µM, first compound 3.16 µM", "result": 70.9, "unit": "%"}, {"measurement": "viability, T/C", "setting": "second compound 1 µM, first compound 10 µM", "result": 35.6, "unit": "%"}, {"measurement": "viability, T/C", "setting": "second compound 3.16 µM, first compound 0.0316 µM", "result": 90.4, "unit": "%"}, {"measurement": "viability, T/C", "setting": "second compound 3.16 µM, first compound 0.1 µM", "result": 92.7, "unit": "%"}, {"measurement": "viability, T/C", "setting": "second compound 3.16 µM, first compound 0.316 µM", "result": 100, "unit": "%"}, {"measurement": "viability, T/C", "setting": "second compound 3.16 µM, first compound 1 µM", "result": 92.3, "unit": "%"}, {"measurement": "viability, T/C", "setting": "second compound 3.16 µM, first compound 3.16 µM", "result": 54.4, "unit": "%"}, {"measurement": "viability, T/C", "setting": "second compound 3.16 µM, first compound 10 µM", "result": 36.8, "unit": "%"}, {"measurement": "viability, T/C", "setting": "second compound 10 µM, first compound 0.0316 µM", "result": 93, "unit": "%"}, {"measurement": "viability, T/C", "setting": "second compound 10 µM, first compound 0.1 µM", "result": 92.7, "unit": "%"}, {"measurement": "viability, T/C", "setting": "second compound 10 µM, first compound 0.316 µM", "result": 93.8, "unit": "%"}, {"measurement": "viability, T/C", "setting": "second compound 10 µM, first compound 1 µM", "result": 63.7, "unit": "%"}, {"measurement": "viability, T/C", "setting": "second compound 10 µM, first compound 3.16 µM", "result": 52.7, "unit": "%"}, {"measurement": "viability, T/C", "setting": "second compound 10 µM, first compound 10 µM", "result": 37.9, "unit": "%"}]}]}
